The values below come from EP4389121A1, “ANTIVIRAL AMINO ACID DERIVATIVES” (Consejo Superior De Investigaciones Científicas (CSIC), priority 2022, dated 2024).

Where two headings read alike, the source gives them in different places.

In data set [1] the test system is SARS-CoV-2. The experiment in a line: Intracellular viral antigen (N protein) accumulation by immunofluorescence, A549-ACE2 cells. Format: cell-based. The settings on record: Severe acute respiratory syndrome coronavirus 2, A549-ACE2, MOI 0.005, 48 h, N protein signal; for EC50: read-out: EC50; for EC90: read-out: EC90.
Data set [2] is described as follows: in vitro. The settings on record: human.
The nature of data set [3]: Cytotoxicity by MTT colorimetric assay, Vero-E6. Format: cell-based. The settings on record: African green monkey, uninfected Vero-E6 cells.
Data set [4] deals with SARS-CoV-2 in Vero-E6 cells. The experiment in a line: microbe, parasite or virus in culture. Format: cell-based. The note with it: Severe acute respiratory syndrome coronavirus 2, Vero C1008; for EC50: approximate, estimated from PCmax and PCmin, read-out: EC50 approx.
The test system of data set [5] is West Nile virus (WNV-GFP). The experiment in a line: microbe, parasite or virus in culture. Format: cell-based. The note with it: Huh-7, 48 h.
In data set [6] the test system is SARS-CoV-2. The experiment in a line: Intracellular viral antigen (N protein) accumulation by immunofluorescence, Vero-E6 cells. The note with it: Severe acute respiratory syndrome coronavirus 2, Vero C1008, Vero-E6, MOI 0.01, 24 h, N protein signal; for EC50: read-out: EC50; for EC90: read-out: EC90. Type of data set: cell-based.
Data set [7] in a line: in vitro. The note with it: African green monkey.
The test system of data set [8] is vesicular stomatitis virus (VSV-GFP). The experiment in a line: microbe, parasite or virus in culture. Format: cell-based. The settings on record: A549-ACE2, 16 h.
Data set [9] in a line: in vitro. The note with it: human. This is another data set of the same source.
Protocol: To evaluate the cytotoxicity profile of the selected compounds MTT assays were performed in Vero-E6 and A549-ACE2 cells. Uninfected cells were incubated with a range of compound concentrations (from 50 to 0.78 µM) for forty-eight hours, time at which the MTT substrate [3-(4,5-dimethylthiazol-2-yl)-2,5-diphenyltetrazolium bromide] was added and the formation of formazan precipitates was evaluated two hours later, using a colorimetric readout. Vehicle-treated (DMSO) cells were used as reference (100 %).
For a further data set, the system named is HCoV 229E (229E-GFP). The experiment in a line: organism not typed. The settings on record: Huh-7, 48 h.
The nature of data set [10]: in vitro. The settings on record: human. The source holds these as a separate data set.
Protocol: Cytotoxicity profile of the selected compounds was evaluated by MTT assays in parallel wells of Huh-7 cells. Uninfected cells were incubated with a range of compound concentrations (from 50 to 0.78 µM) for forty-eight hours, time at which the MTT substrate [3-(4,5-dimethylthiazol-2-yl)-2,5-diphenyltetrazolium bromide] was added and the formation of formazan precipitates was evaluated two hours later, using a colorimetric readout. Vehicle-treated (DMSO) cells were used as reference (100 %).
Data set [11] in a line: in vitro. The note with it: human. This is another data set of the same source.
Data set [12] is described as follows: in vitro. The note with it: human. The source holds these as a separate data set.
Protocol: (§1) To study the antiviral effect of selected compounds of the family against a distinct human coronavirus, Huh-7 cell monolayers were infected with a GFP-expressing recombinant HCoV 229E (229E-GFP) at MOI 0.01 in the presence of a wide range of compound concentrations (0.4 to 50 µM). Forty-eight hours later cells were fixed by 10 minutes incubation with a 4 % formaldehyde-PBS solution. After extensive washes with PBS, infection efficiency was evaluated by the detection of GFP accumulation by fluorescence microscopy. Nuclei were stained using DAPI (4',6-diamidino-2-phenylindole) dye. Automated imaging was carried out in a SparkCyto (Tecan) multimode plate reader. The total intensity signal present in vehicle-treated (DMSO) conditions was used as reference (100 %).
The mark [13] stands for this setting: minimum nominal concentration protecting the Vero-E6 monolayer from virus-induced cell death, MOI 0.001, 72 h, read-out: PCmin.
Setting [14] is: real concentration, Vero-E6, MOI 0.001, 72 h, read-out: PC min real.

Protocol for HCoV 229E (229E-GFP): as §1

What is called EC50 is the concentration that produces a half-maximal response. As a reminder, the EC90 is the point of the concentration-response curve where the effect stands at 90%. Take `CCCCCCOC(=O)[C@H](CCC(=O)NCCC1CCN(Cc2ccccc2)CC1)NC(=O)c1coc(C)n1` [NF1331, n-Hexyl N^5-(2-(1-benzylpiperidin-4-yl)ethyl)-N^2-(2-methyloxazole-4-carbonyl)-L-glutaminate]: the EC50 with SARS-CoV-2 [1] was 1.8 µM; in data set [4] (Vero-E6, MOI 0.001, 72 h), 2.4 µM; in [5], above 50 µM; with SARS-CoV-2 [6], 1.5 µM; in data set [8] it was 38 µM; with HCoV 229E (229E-GFP), 2 µM. Also, the EC90 in the data set with SARS-CoV-2 [1] is 5 µM; in [5], above 50 µM; in the data set on SARS-CoV-2 [6], 11 µM; in [8] it was above 50 µM; with HCoV 229E (229E-GFP), 20 µM. For the same molecule, the CC50 at 48 h in “in vitro [2]” was above 50 µM; in [3] it was above 50 µM; in the data set “in vitro [9]”, above 50 µM; in the data set “in vitro [10]” it was above 50 µM; in “in vitro [12]”, 43 µM. Besides, the results for the minimal effective concentration in data set [4] (setting [13]) and in [4] (setting [14]) were 3.12 µM and 3.3 µM, respectively. Also, the CC50 in “in vitro [7]”, in the data set “in vitro [9]”, in “in vitro [10]” and in the data set “in vitro [11]” was above 50 µM throughout.

`CCOC(=O)[C@H](CCC(=O)NCCC1CCN(Cc2ccccc2)CC1)NC(=O)OCc1ccccc1` [NF1365, Ethyl N^2-((benzyloxy)carbonyl)-N^5-(2-(1-benzylpiperidin-4-yl)ethyl)-L-glutaminate]: the EC50 is 1 to 2 µM with SARS-CoV-2 [1]; 2.4 µM in data set [4] (Vero-E6, MOI 0.001, 72 h); 27 µM in data set [5]; 1.8 µM in the data set with SARS-CoV-2 [6]; 36 µM in [8]; 1 µM in the data set on HCoV 229E (229E-GFP). The EC90 with SARS-CoV-2 [1] is 2.5 to 5 µM; in data set [5] it was 45 µM; in the data set with SARS-CoV-2 [6], 6 µM; in data set [8] it was 47 µM; in the data set with HCoV 229E (229E-GFP), 8 µM. The molecule also showed a CC50 at 48 h in [3] above 50 µM. Further, the minimal effective concentration in [4] (setting [13]) is 3.12 µM; in [4] (setting [14]), 3.2 µM. In “in vitro [7]”, this molecule gave a CC50 of 50 µM.
